Experiment [1] deals with C. elegans. In words: plate (drop) assay: nematodes fed E. coli lawn pre-loaded with the compound. The class given is in vivo. As for the experimental part:
(§1) Using two kinds of assays, the optimal concentration of compounds that inhibit the activity SERCA has been determined. The first assay is designated the drop or plate assay in which the nematodes are fed E. coli strains pre-loaded with the compound. In a second assay, the compound is administrated to the worm in liquid culture.
A standard plate drop assay is performed according to the following protocol. 4 ml NGM agar (see “The nematode C. elegans” Ed. by William B. Wood and the Community of C. elegans Researchers, CSHL Press, 1988, pg589) is into 3 cm plates and seeded with approximately 5 μl of an E. coli overnight culture and grown preferably for one week at room temperature. Approximately 10 μl of test compound dissolved in DMSO or other suitable solvent is pipetted onto the bacterial lawn so that the lawn is covered completely. After overnight soaking in or compound, one C. elegans (L4 stage) per plate is put onto the bacterial lawn. Plates are incubated at 21° C. and checked after some hours.

Experiment [2] relates to C. elegans. Put plainly: liquid assay: compound administered to the worm in liquid culture. Type of experiment: in vivo.
Excerpt: as §1

The test system of experiment [3] is C. elegans strains unc-31 and srf-3. In words: production of progeny after thapsigargin treatment in different C. elegans strains. The class given is in vivo. As for the experimental part:
The effect of thapsigargin on the production of progeny was determined for a number of different C. elegans strains. The numbers of progeny produced following thapsigargin treatment was counted for an average of 15 animals, the results are summarised as follows: […]

Experiment [4] concerns C. elegans wild-type worms and mutant strain unc-31. Put plainly: effect on pharynx pumping behaviour. The class given is in vivo. As for the experimental part:
The effect of thapsigargin on pharynx pumping behaviour was also determined. In wild-type worms, all animals stopped pumping after 10 minutes.

Experiment [5] deals with C. elegans strain UG530 (harboring plasmid pGK28). In words: thapsigargin sensitivity of worms carrying the pGK28 (Phe259Val SERCA) transgene. The settings on record: for stage reached by progeny on thapsigargin: 10 μl drops of 5 to 0.05 mM thapsigargin in DMSO, 5 days. The class given is in vivo. The protocol:
FIG. 3 illustrates the growth of C. elegans strain UG530 (strain harboring plasmid pGK28) on different concentrations of thapsigargin. The stage of the progeny was determined 5 days after adults were put on the plates. […] These were differentiated based on a GFP marker also present on this transgene.
The effect of thapsigargin on worms carrying a pGK28 transgene was measured in the following way: 10 μl of thapsigargin dissolved in DMSO (5, 2.5, 1, 0.5, 0.25, 0.1, and 0.05 mM respectively) was added onto a drop of E. coli strain OP50cs2 in 12-well plates. The wells with compounds were placed at 10 C. overnight, after which […] young adults were added to the wells. The pharynx pumping rate and movement behaviour was scored for the ten worms after 10 minutes and after one hour (short term effect). Furthermore the wells were scored for protruding vulva and rectum, production of progeny (few eggs in body) after one day (mid-term-effects), and for progeny after four days (long term effect)

The next experiment has as its system SERCA Phe256Val. To be noted: substitution Phe256Val in hamsters (Yu et al., 1999); cited from earlier work.
Setting [6] is: mutant strain unc-31, 1 mM thapsigargin.

Regarding `C/C=C(/C)C(=O)O[C@H]1C(C)=C2[C@H]([C@@H]1OC(=O)CCCCCCC)[C@@](C)(OC(C)=O)C[C@H](OC(=O)CCC)[C@@]1(O)[C@H]2OC(=O)[C@@]1(C)O` [thapsigargin], in the experiment on C. elegans [1] (5 μM, 2.5 μM and 1.25 μM), the “appearance and movement of the worms” value is “pale and thin and have a slow and irregular movement, with an increased amplitude”; the brood size result was “very small”; the “gonad, eggs and vulva” value was “defective gonad with only very few eggs, and a protruding vulva”; the “plate drop response, backing, pumping, constipation” value is “No plate drop response is observed, and the worms show poor backing, reduced pumping and strong constipation”. In the experiment on C. elegans [1] (5 μM, 2.5 μM and 1.25 μM), the rectum entry is listed as “Some worms also have a protruding rectum”; the “restart of pharynx pumping” value is reported as “Within an hour the worms restart pumping, although at a low level”; the “time until the nematode stops pharynx pumping” value was no more than 10 min. In addition, the “stage reached by progeny” value with C. elegans [1] (5 μM, 2.5 μM and 1.25 μM, after four days) is recorded as “Progeny reaches L2 stage only after four days”. The brood size result in the experiment with C. elegans [1] (lower concentrations 0.5 μM, 0.25 μM, 0.125 μM) is recorded as “reduced brood size”. Moreover, in the experiment with C. elegans [2] (100, 50 and 20 μM), the “size and movement of the worms” value was “small worms which show slow and loopy movement”; the vulva and progeny result is “protruding vulva, and no progeny (or no progeny that grows up)”. Also, the progeny and growth entry in the experiment on C. elegans [2] (lower concentrations 10 μM and 5 μM) was “reduced number of progeny and delayed growth”. For the same compound, in experiment [3] (strain srf-3, 1 mM thapsigargin, average of 15 animals (control 50)), the “number of progeny produced” value was 18,3. For the same compound, the “number of progeny produced” value in experiment [3] (strain unc-31, 0.5 mM thapsigargin, average of 15 animals (control 132)) is 35. Besides, the “number of progeny produced” value in experiment [3] (strain unc-31, 1 mM thapsigargin, average of 15 animals (control 132)) was 5,6. Also, in experiment [4] (setting [6]), the “pumping speed after restart” value is given as “one third of normal speed”, the restart of pumping result was “some start again after half an hour” and the “time after which all worms stopped pumping” value stood at 10 min. Moreover, the “time after which all animals stopped pumping” value in experiment [4] (wild-type worms) turned out to be 10 min. The “stage reached by progeny on thapsigargin” value in experiment [5] (GFP-animals harboring pGK28 (Phe259Val SERCA)) is reported as “grew up to adult or L4”. The “amount of progeny on thapsigargin” value in experiment [5] (nematodes harboring the Phe259Val SERCA mutant compared with wild-type) is “slightly more progeny than wild-type”. Besides, the “stage reached by progeny on thapsigargin” value in experiment [5] (non-GFP animals (not harboring the mutated SERCA)) is “arrested at L1 and L2 and never grew up further than L3”. Moreover, the “protruding vulva and rectum-phenotype” value in experiment [5] (strain UG530 (harboring pGK28) treated with thapsigargin) is listed as “not or were only occasionally observed”. Besides, the “protruding vulva and rectum-phenotype” value in experiment [5] (wild-type nematodes treated with thapsigargin) is recorded as “very often observed”. The “resistance to thapsigargin inhibition” value with SERCA Phe256Val was 40 fold.
In the case of `C/C=C(/C)C(=O)O[C@H]1C(C)=C2[C@H]([C@@H]1OC(=O)CCCCC)[C@@](C)(OC(C)=O)C[C@H](OC(=O)CCC)[C@@]1(O)[C@H]2OC(=O)[C@@]1(C)O` [Thapsigargicin], in the experiment with C. elegans [1] (lower concentrations 3 μM and 1.5 μM), the brood size entry is “slightly reduced brood size”. Also, the “phenotype of worms and progeny” value with C. elegans [2] (1000 μM, 250 μM, 62.5 μM and 16 μM) is “small worms with slow and loopy movement, a protruding vulva, and no progeny (or no progeny that grows up)”. The growth and progeny result with C. elegans [2] (lower concentration 10 μM) is “delayed growth and reduced progeny”.
As to `CC(C)(C)c1cc(O)c(C(C)(C)C)cc1O` [2,5-di-tert butylhydroquinone], the “phenotype of the worms” value with C. elegans [1] (500 μM) was “pale, starved, thin worms with slow movement, defective gonad, constipated and reduced brood size”. Further, the “phenotype of worms and progeny” value with C. elegans [2] (1 mM) is “progeny exhibiting delayed growth and the worms be observed to be thinner”.
On to `O=C1C=CC(=O)C=C1` [1,4-benzoquinone], for which the “observable effect at the highest concentration tested” value in the experiment on C. elegans [1] (100 mM drop, 500 μM end concentration) was “did not result in a clear observable effect”.

These data come from US6540996B1, “Compound screening methods” (priority 1999, dated 2003).
